# Entries after “also recorded” stand apart in the source; their conditions may differ.
# Columns and labels:
# [1] = test system: A549 cells; assay: Cell morphology / actin confocal microscopy, A549; type: cell-based, human; details: 18 hours treatment
# Experimental: Cell Morphology Assays and Confocal Microscopy: To assay cytoskeleton morphology, KR158 cells, mouse primary astrocytes, KR158 clones expressing the NF1-GRD constructs, K14553 cells, and A549 were seeded to cover slips and allowed to reattach overnight. Cells were treated for 18 hours with either the indicated concentrations of SA, or the vehicle control DMSO. The cover slips were fixed in 3.7% paraformaldehyde, permeablized in 0.1% Triton-X100, and stained with Alexa Fluor 488-phalloidin (Invitrogen, Carlsbad, Calif., USA) to detect actin and cells were mounted in Prolong Antifade containing DAPI (Invitrogen) to stain nuclei. The cells were imaged on a LSM510 confocal microscope (Carl Zeiss Inc., Jena, Germany). For phospho-myosin light chain 2 (MLC) detection, cells were seeded to coverslips as described above. Cells were serum starved in 0.5% FBS and SA or DMSO vehicle control for 18 hours, and then pulsed with 10 ng/mL EGF (Invitrogen) for 5 min. […] Actin structures were monitored continuously over a 16 hr period using confocal microscopy equipped with a growth chamber (37° C., humidified atmosphere and 5% CO2). […]
# [2] = test system: A549 cells; assay: XTT cell proliferation assay, A549; type: cell-based, human; details: 48 hours
# Experimental: (§1) XTT Cell Proliferation Assay: Cells were seeded into 96-well plates at a density of 2,000 cells/well and allowed to reattach overnight. Cells were treated with SA, synthetic analogs, camptothecin (NCI Chemotherapeutics Repository, Md., USA), or DMSO control at the indicated concentrations continuously for 48 hours followed by assay in the 96-well plate for relative viable cell number using the dye […] (XTT) and a Wallac-Victor 2 plate reader (Perkin-Elmer, Waltham, Mass., USA). Absorbance was determined at 450 nm with 650 nm as a reference reading. Primary astrocytes were additionally assayed at a 96 hour time point.
# [3] = test system: KR158 cells stably transfected with GFP-actin; assay: Cell morphology / actin confocal microscopy, KR158 GFP-actin; type: cell-based, mouse; details: 16-18 hrs treatment
# Experimental: Doxorubicin studies: KR158 stably transfected with GFP-actin were treated with 25 and 50 μM doxorubicin for 18 hrs continuously.
# Cell Morphology Assays and Confocal Microscopy: To assay cytoskeleton morphology, KR158 cells, mouse primary astrocytes, KR158 clones expressing the NF1-GRD constructs, K14553 cells, and A549 were seeded to cover slips and allowed to reattach overnight. Cells were treated for 18 hours with either the indicated concentrations of SA, or the vehicle control DMSO. The cover slips were fixed in 3.7% paraformaldehyde, permeablized in 0.1% Triton-X100, and stained with Alexa Fluor 488-phalloidin (Invitrogen, Carlsbad, Calif., USA) to detect actin and cells were mounted in Prolong Antifade containing DAPI (Invitrogen) to stain nuclei. The cells were imaged on a LSM510 confocal microscope (Carl Zeiss Inc., Jena, Germany). […] KR158 GFP-actin transfected cells were seeded to 8-well chamber slides, allowed to reattach, and then treated with indicated concentrations of SA. Actin structures were monitored continuously over a 16 hr period using confocal microscopy equipped with a growth chamber (37° C., humidified atmosphere and 5% CO2). To compare SA to Rho/Rock inhibitors, KR158 GFP-actin cells were treated with SA or with the Rho pathway inhibitors Rock inhibitor Y-27632 (Sigma, St. Louis, Mo., USA), and the Rho inhibitor C3 transferase (Cytoskeleton, Inc., Denver, Colo., USA, cat# CT04) for 16 hrs, and then examined by confocal microscopy.
# [4] = test system: MPNST T265 cells; assay: XTT cell proliferation assay, T265; type: cell-based, human
# Experimental: as §1
# Cell lines and culture: Human MPNST cell lines (STS26T and T265) were obtained from the Pediatric Oncology Branch, NCI (Bethesda, Md., USA).
# [5] = test system: A549 human lung carcinoma cells; assay: Clonogenic assay, A549; type: cell-based; details: 18 hrs treatment, colonies after one week
# Experimental: Clonogenic Assays: Monolayers of cells were treated for 18 hrs with SA, and then harvested, counted, and seeded to 35 mm dishes at a density of 1000 cells per dish. After one week, macroscopic colonies were stained with crystal violet (Sigma, St. Louis, Mo., USA) and counted.
smiles,measurement,setting,value
"CC(C)=CCC/C(C)=C/Cc1c(O)cc(/C=C/c2cc(O)c3c(c2)C[C@@H]2C(C)(C)[C@H](O)[C@H](O)C[C@@]2(C)O3)cc1O [SA, Schweinfurthin A]","actin organization, phalloidin staining",[1],no visible changes in actin organization
same,inhibition of proliferation (percent viability versus control),[2],does not inhibit; also recorded: no apparent effect
same,F-actin staining / stress fibers,[3],dramatic loss of F-actin staining
same,inhibition of proliferation (percent viability versus control),[4],potent inhibition of cell proliferation; also recorded: sensitive
same,colony growth,[5],not inhibited; also recorded: formed colonies up to the highest concentration of SA tested

# Source: patent US8686016B2, “Schweinfurthins and uses thereof” (The United States of America, as represented by the …, priority 2009, dated 2014)
